Source: PubChem BioAssay AID1963829 (Molecular Pharmacology Branch, DTP, NCI, 2024)

System: 935938-334-R-J1-PDC complex spheroid viability
Test: Anticancer human tumor 935938-334-R-J1-PDC patient-derived small intestine adenocarcinoma cell line growth inhibition [POLQ]
Settings: for IC50: curve of first compound; for viability, T/C: stronger effect = lower value
Method in brief: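 Patient-derived tumour cells were co-cultured with HUVEC and mesenchymal stem cells as multicellular spheroids at 37 °C. They were treated with POLQ inhibitors (novobiocin, ART-558, RP6685) alone or combined with other agents. Top concentrations were at or near clinical Cmax (otherwise 10 microM; SN-38 at 1 microM), decreasing in half-log steps.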

[1] = second compound 0.0316 µM, first compound 0.0316 µM
[2] = second compound 0.0316 µM, first compound 0.1 µM
[3] = second compound 0.0316 µM, first compound 0.316 µM
[4] = second compound 0.0316 µM, first compound 1 µM
[5] = second compound 0.0316 µM, first compound 3.16 µM
[6] = second compound 0.0316 µM, first compound 10 µM
[7] = second compound 0.1 µM, first compound 0.0316 µM
[8] = second compound 0.1 µM, first compound 0.1 µM
[9] = second compound 0.1 µM, first compound 0.316 µM
[10] = second compound 0.1 µM, first compound 1 µM
[11] = second compound 0.1 µM, first compound 3.16 µM
[12] = second compound 0.1 µM, first compound 10 µM
[13] = second compound 0.316 µM, first compound 0.0316 µM
[14] = second compound 0.316 µM, first compound 0.1 µM
[15] = second compound 0.316 µM, first compound 0.316 µM
[16] = second compound 0.316 µM, first compound 1 µM
[17] = second compound 0.316 µM, first compound 3.16 µM
[18] = second compound 0.316 µM, first compound 10 µM
[19] = second compound 1 µM, first compound 0.0316 µM
[20] = second compound 1 µM, first compound 0.1 µM
[21] = second compound 1 µM, first compound 0.316 µM
[22] = second compound 1 µM, first compound 1 µM
[23] = second compound 1 µM, first compound 3.16 µM
[24] = second compound 1 µM, first compound 10 µM
[25] = second compound 3.16 µM, first compound 0.0316 µM
[26] = second compound 3.16 µM, first compound 0.1 µM
[27] = second compound 3.16 µM, first compound 0.316 µM
[28] = second compound 3.16 µM, first compound 1 µM
[29] = second compound 3.16 µM, first compound 3.16 µM
[30] = second compound 3.16 µM, first compound 10 µM
[31] = second compound 10 µM, first compound 0.0316 µM
[32] = second compound 10 µM, first compound 0.1 µM
[33] = second compound 10 µM, first compound 0.316 µM
[34] = second compound 10 µM, first compound 1 µM
[35] = second compound 10 µM, first compound 3.16 µM
[36] = second compound 10 µM, first compound 10 µM
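Note: spheroids exposed to drugs for seven days before viability read.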
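Throughout, for viability, T/C: 100% = DMSO vehicle control wells.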

Structure (SMILES): CCc1cc2c(N3CCc4c(cc(Cn5ccnc5)cc4-c4cn(C)nc4C(F)(F)F)C3=O)ccnc2c(OC)n1 + COC1C(OC(N)=O)C(O)C(Oc2ccc3c(O)c(NC(=O)c4ccc(O)c(CC=C(C)C)c4)c(=O)oc3c2C)OC1(C)C
- IC50 (second compound 0.0316 µM): > 10000 nM
- IC50 (second compound 0.1 µM): > 10000 nM
- IC50 (second compound 0.316 µM): > 10000 nM
- IC50 (second compound 1 µM): > 10000 nM
- IC50 (second compound 3.16 µM): > 10000 nM
- IC50 (second compound 10 µM): > 10000 nM
- viability, T/C [1]: 73.3%
- viability, T/C [2]: 86.7%
- viability, T/C [3]: 72.2%
- viability, T/C [4]: 94.4%
- viability, T/C [5]: 82.7%
- viability, T/C [6]: 65.9%
- viability, T/C [7]: 85.7%
- viability, T/C [8]: 77.2%
- viability, T/C [9]: 64.6%
- viability, T/C [10]: 83.8%
- viability, T/C [11]: 86.5%
- viability, T/C [12]: 64.5%
- viability, T/C [13]: 97.2%
- viability, T/C [14]: 62.6%
- viability, T/C [15]: 85%
- viability, T/C [16]: 73.2%
- viability, T/C [17]: 90.5%
- viability, T/C [18]: 70.3%
- viability, T/C [19]: 64.7%
- viability, T/C [20]: 81.9%
- viability, T/C [21]: 62.5%
- viability, T/C [22]: 63.9%
- viability, T/C [23]: 87.5%
- viability, T/C [24]: 62.1%
- viability, T/C [25]: 74.5%
- viability, T/C [26]: 85.5%
- viability, T/C [27]: 88.5%
- viability, T/C [28]: 59.5%
- viability, T/C [29]: 73.5%
- viability, T/C [30]: 72%
- viability, T/C [31]: 69.7%
- viability, T/C [32]: 67.2%
- viability, T/C [33]: 66.1%
- viability, T/C [34]: 73.6%
- viability, T/C [35]: 81.2%
- viability, T/C [36]: 72.2%

Structure (SMILES): O=C(Nc1ccc(O)c(NS(=O)(=O)c2ccc(F)cc2)c1)c1ccc(-c2ccccc2)cc1 + COC1C(OC(N)=O)C(O)C(Oc2ccc3c(O)c(NC(=O)c4ccc(O)c(CC=C(C)C)c4)c(=O)oc3c2C)OC1(C)C
- IC50 (second compound 0.0316 µM): > 10000 nM
- IC50 (second compound 0.1 µM): > 10000 nM
- IC50 (second compound 0.316 µM): > 10000 nM
- IC50 (second compound 1 µM): > 10000 nM
- IC50 (second compound 3.16 µM): > 10000 nM
- IC50 (second compound 10 µM): > 10000 nM
- viability, T/C [1]: 77.9%
- viability, T/C [2]: 134%
- viability, T/C [3]: 107%
- viability, T/C [4]: 102%
- viability, T/C [5]: 89.1%
- viability, T/C [6]: 66.7%
- viability, T/C [7]: 115%
- viability, T/C [8]: 97.3%
- viability, T/C [9]: 86.5%
- viability, T/C [10]: 97%
- viability, T/C [11]: 90.8%
- viability, T/C [12]: 72.4%
- viability, T/C [13]: 95.3%
- viability, T/C [14]: 97.9%
- viability, T/C [15]: 102%
- viability, T/C [16]: 75.9%
- viability, T/C [17]: 93.3%
- viability, T/C [18]: 73.6%
- viability, T/C [19]: 106%
- viability, T/C [20]: 109%
- viability, T/C [21]: 96.2%
- viability, T/C [22]: 93%
- viability, T/C [23]: 116%
- viability, T/C [24]: 77%
- viability, T/C [25]: 105%
- viability, T/C [26]: 93.3%
- viability, T/C [27]: 85.2%
- viability, T/C [28]: 109%
- viability, T/C [29]: 87.6%
- viability, T/C [30]: 75.2%
- viability, T/C [31]: 145%
- viability, T/C [32]: 99.7%
- viability, T/C [33]: 128%
- viability, T/C [34]: 84.4%
- viability, T/C [35]: 97.2%
- viability, T/C [36]: 67.6%

Structure (SMILES): COc1cc(C2c3cc4c(cc3C(OC3OC5COC(C)OC5C(O)C3O)C3COC(=O)C23)OCO4)cc(OC)c1O (stereo not drawn) + Cc1cccc(N(C)C(=O)C2C(O)CCN2c2nc(C)cc(C(F)(F)F)c2C#N)c1
- IC50 (second compound 0.0316 µM): 577 nM
- IC50 (second compound 0.1 µM): 870 nM
- IC50 (second compound 0.316 µM): 743 nM
- IC50 (second compound 1 µM): 471 nM
- IC50 (second compound 3.16 µM): 397 nM
- IC50 (second compound 10 µM): 353 nM
- viability, T/C [1]: 89.9%
- viability, T/C [2]: 112%
- viability, T/C [3]: 65.5%
- viability, T/C [4]: 41.6%
- viability, T/C [5]: 33.3%
- viability, T/C [6]: 32.7%
- viability, T/C [7]: 104%
- viability, T/C [8]: 94.6%
- viability, T/C [9]: 73.7%
- viability, T/C [10]: 47.3%
- viability, T/C [11]: 33.5%
- viability, T/C [12]: 35.9%
- viability, T/C [13]: 131%
- viability, T/C [14]: 114%
- viability, T/C [15]: 74.1%
- viability, T/C [16]: 40.6%
- viability, T/C [17]: 34.2%
- viability, T/C [18]: 33.8%
- viability, T/C [19]: 116%
- viability, T/C [20]: 78%
- viability, T/C [21]: 61%
- viability, T/C [22]: 35.9%
- viability, T/C [23]: 30.4%
- viability, T/C [24]: 30.2%
- viability, T/C [25]: 84.2%
- viability, T/C [26]: 93.6%
- viability, T/C [27]: 54%
- viability, T/C [28]: 37.4%
- viability, T/C [29]: 28.7%
- viability, T/C [30]: 34.7%
- viability, T/C [31]: 110%
- viability, T/C [32]: 73.7%
- viability, T/C [33]: 56.2%
- viability, T/C [34]: 33.7%
- viability, T/C [35]: 31.1%
- viability, T/C [36]: 33.1%

Structure (SMILES): COc1cccc2c1C(=O)c1c(O)c3c(c(O)c1C2=O)CC(O)(C(=O)CO)CC3OC1CC(N)C(O)C(C)O1 (stereo not drawn) + Cc1cccc(N(C)C(=O)C2C(O)CCN2c2nc(C)cc(C(F)(F)F)c2C#N)c1
- IC50 (second compound 0.0316 µM): 55.5 nM
- IC50 (second compound 0.1 µM): 87.4 nM
- IC50 (second compound 0.316 µM): 52 nM
- IC50 (second compound 1 µM): 75.3 nM
- IC50 (second compound 3.16 µM): 70.5 nM
- IC50 (second compound 10 µM): < 31.6 nM
- viability, T/C [1]: 60.2%
- viability, T/C [2]: 35.3%
- viability, T/C [3]: 34.6%
- viability, T/C [4]: 21.2%
- viability, T/C [5]: 7.49%
- viability, T/C [6]: 4.38%
- viability, T/C [7]: 63.8%
- viability, T/C [8]: 48.5%
- viability, T/C [9]: 31.6%
- viability, T/C [10]: 23.7%
- viability, T/C [11]: 7.55%
- viability, T/C [12]: 3.7%
- viability, T/C [13]: 56.5%
- viability, T/C [14]: 41.8%
- viability, T/C [15]: 26.8%
- viability, T/C [16]: 19.7%
- viability, T/C [17]: 8.13%
- viability, T/C [18]: 5.68%
- viability, T/C [19]: 75.8%
- viability, T/C [20]: 34.2%
- viability, T/C [21]: 31.4%
- viability, T/C [22]: 19.3%
- viability, T/C [23]: 5.12%
- viability, T/C [24]: 5.59%
- viability, T/C [25]: 63.8%
- viability, T/C [26]: 39.4%
- viability, T/C [27]: 35.3%
- viability, T/C [28]: 19.8%
- viability, T/C [29]: 2.97%
- viability, T/C [30]: 4.99%
- viability, T/C [31]: 49.4%
- viability, T/C [32]: 33.8%
- viability, T/C [33]: 37.7%
- viability, T/C [34]: 16.8%
- viability, T/C [35]: 5.04%
- viability, T/C [36]: 5.34%
